According to ChEMBL document CHEMBL1146148, “Hydroxyl radical scavenging by edaravone derivatives: Efficient scavenging by 3-methyl-1-(pyridin-2-yl)-5-pyrazolone with an intramolecular base” (Bioorg Med Chem Lett, 2006):

Experiment: Hydroxyl radical scavenging activity by ESR spin-trapping method
Assay type: functional

Compound | IC50
O=C(NC1=NN(c2ccccc2)C(=O)C1)Oc1ccccc1 | 380 µM
CC1=NN(c2ccccc2)C(=O)C1C1CC1 (stereo not drawn) | 720 µM
O=C1CC(C(F)(F)F)=NN1c1ccccc1 | 810 µM
CC1=NN(c2ccccc2)C(=O)C1c1ccccc1 (stereo not drawn) | 790 µM

Further lines, results first:

IC50 | Compound
250 µM | CC1=NN(c2ccccc2)C(=O)C1 [EDARAVONE]
610 µM | CC1=NN(c2ccccc2)C(=O)C1C(=O)c1ccccc1 (stereo not drawn)
500 µM | CC1=NN(c2ccc([N+](=O)[O-])cc2)C(=O)C1
18 µM | CC1=NN(c2ccccn2)C(=O)C1
